# Assay results published in the NIST ThermoML archive (doi:10.1021/je3012452).
# ± gives the expanded uncertainty stated by the source.
# Legend:
# [1] = DTA
# [2] = Molar enthalpy of transition or fusion; details: DSC
SMILES,Normal melting temperature ([1]; Crystal 1) [°C],Triple point temperature ([1]; Crystal 2) [K],Molar enthalpy of transition or fusion ([2]; Crystal 1) [kcal/mol],Molar enthalpy of transition or fusion ([2]; Crystal 2) [kcal/mol],Normal melting temperature ([1]; Crystal) [°C],Molar enthalpy of transition or fusion ([2]; Crystal) [kcal/mol],Triple point temperature ([1]; Crystal 3) [K],Molar enthalpy of transition or fusion ([2]; Crystal 3) [kcal/mol]
CCCC(CCC)C(N)=O [2-propylpentanamide],125.1 ± 0.5,360.6 ± 0.9,5.38 ± 0.311,0.418 ± 0.105,–,–,–,–
CC(C)C(N)=O [2-methylpropanamide],–,–,–,–,128.5 ± 0.9,4.76 ± 0.12,–,–
CCCCCCC(N)=O [heptanamide],95.5 ± 1.1,356.1 ± 0.5,3.87 ± 0.12,0.813 ± 0.0478,–,–,319 ± 1.6,1.79 ± 0.143
CCCCCC(N)=O [hexanamide],99.2 ± 2.8,306.1 ± 0.5,4.02 ± 0.167,1.22 ± 0.0717,–,–,–,–
